What was measured:
[1] = target: recombinant HIV-1 RT enzyme (p66/51 dimer) (Human immunodeficiency virus type 1 group M subtype B, UniProt P03366); experiment: RT inhibition assay, poly; format: biochemical; conditions: for HIV-1 RT inhibition (in words): poly(rC)·oligo(dG) as template primer
[2] = cited from earlier work

SMILES | HIV-1 RT inhibition (in words) [1] | other results
COC(=O)c1cc(/C(=C/CCN2CCOC2=O)c2cc(C)c3onc(OC)c3c2)cc(Cl)c1OC [Compound 6, (E)-3-Chloro-2-methoxy-5-[1-(3-methoxy-7-methyl-benzo[d]isoxazol-5-yl)-4-(2-oxoxazolidin-3-yl)-but-1-enyl]-benzoic acid methyl ester] | much less active | –
COC(=O)CCC/C=C(\c1cc(F)cc(C(F)(F)F)c1)c1cc(C)c2onc(OC)c2c1 [Compound 1] | – | IC50 [1]: 0.9 µM
COC(=O)c1cc(/C(=C/CCN2CCOC2=O)c2cc(C)c3onc(OC)c3c2)cc(C)c1OC [Compound 5, (E)-2-Methoxy-5-[1-(3-methoxy-7-methylbenzo[d]isoxazol-5-yl)-4-(2-oxoxazolidin-3-yl)-but-1-enyl]-3-methylbenzoic acid methyl ester] | much less active | –
COc1noc2c(C)cc(C(=CCCN3CCOC3=O)c3cc(C)c4onc(OC)c4c3)cc12 [Compound 7, 3-[4,4-Bis-(3-methoxy-7-methyl-benzo[d]isoxazol-5-yl)-but-3-enyl]-oxazolidin-2-one] | active | –
COC(=O)CCC/C=C(/c1cc(C)c2onc(OC)c2c1)c1cc(C)c2oc(=O)n(C)c2c1 [Compound 2] | – | stability in rat blood plasma (in words) [2]: unstable
COc1noc2c(C)cc(/C(=C\CCN3CCOC3=O)c3cc(C)c4oc(=O)n(C)c4c3)cc12 [Compound 8, (E)-5-[1-(3-Methoxy-7-methylbenzo[d]isoxazol-5-yl)-4-(2-oxoxazolidin-3-yl)-but-1-enyl]-3,7-dimethyl-3H-benzoxazol-2-one] | much less active | –
COc1noc2c(C)cc(/C(=C\CCN3CCOC3=O)c3cccc(C#N)c3)cc12 [Compound 9, (Z)-3-[1-(3-Methoxy-7-methylbenzo[d]isoxazol-5-yl)-4-(2-oxoxazolidin-3-yl)-but-1-enyl]-benzonitrile] | much less active | –
COC(=O)CCC/C=C(\c1cc(C)c(OC)c(C(=O)OC)c1)c1cc(C)c2onc(OC)c2c1 [Compound 3, (Z)-2-Methoxy-5-[5-methoxycarbonyl-1-(3-methoxy-7-methylbenzo[d]isoxazol-5-yl)-pent-1-enyl]-3-methylbenzoic acid methyl ester] | – | IC50 [1]: 0.91 µM

— article PMC2676060 (European journal of medicinal chemistry, 2008)
